Measurements taken from publication PMC9146984, “A Novel Proline-Rich Cathelicidin from the Alpaca Vicugna pacos with Potency to Combat Antibiotic-Resistant Bacteria: Mechanism of Action and the Functional Role of the C-Terminal Region” (Membranes, 2022).
≈ marks a conversion by molar mass, not a printed value. Where a SMILES comes first, the peptide text is derived from it.

How the values were obtained:
[1] = test system: E. coli ML-35p cytoplasmic membrane; test: Cytoplasmic membrane permeabilization (ONPG hydrolysis); assay type: cell-based, Escherichia coli
Procedure: To examine the ability of the peptides to affect the barrier function of the cytoplasmic bacterial membrane, we slightly modified the previously described procedure with the use of the E. coli ML-35p strain constitutively expressing cytoplasmic β-galactosidase but lacking lactose permease. The state of the E. coli ML-35p inner membrane was assessed based on its permeability to chromogenic marker o-nitrophenyl-β-D-galactopyranoside (ONPG, AppliChem, Darmstadt, Germany), which is the β-galactosidase substrate. The cells were incubated in the trypticase soy broth (TSB) for 16 h at 37 °C, washed three times with phosphate-buffered saline (PBS, pH 7.4) to remove residual growth media, adjusted to the concentration of 2.5 × 10^8 CFU/mL, and stored on ice until used. The assay was performed in PBS as well. The final concentration of E. coli ML-35p cells was 2.5 × 10^7 CFU/mL. The concentration of ONPG was 2.5 mM. Peptide samples were placed in the wells of a 96-well plate with a non-binding surface (NBS, Corning #3641), and the optical density (OD) of the solution rose due to the appearance of o-nitrophenol was measured at 405 nm using a microplate reader AF2200 (Eppendorf, Hamburg, Germany). The final volume in each well was 200 µL. Assays were performed at 37 °C under stirring at 500 rpm. Control experiments were performed under the same conditions without adding a peptide. Two independent experiments were performed, and the curve pattern was similar.

[2] = test system: P. aeruginosa ATCC 27853; test: Antimicrobial assay (MIC); assay type: cell-based, Pseudomonas aeruginosa; settings: Mueller-Hinton broth supplemented with 0.9% NaCl
Procedure: (§1) The reduction of resazurin to resorufin was measured.

[3] = test system: P. aeruginosa PAO1; test: Antimicrobial assay (MIC); assay type: cell-based, Pseudomonas aeruginosa; settings: Mueller-Hinton broth supplemented with 0.9% NaCl
Procedure: as §1

[4] = test system: E. coli MDR 1057; settings: MH broth with 0.9% NaCl, 14 passages with the same agent (VicBac[1–22]: after 10 passages)
Procedure: Resistance induction experiments were performed using the previously described method. Briefly, on day one, the overnight culture of wild-type bacteria was diluted with the 2× MH broth supplemented with 1.8% NaCl to reach a final cell concentration of 10^6 CFU/mL. 50 µL of the obtained bacterial suspension were added to aliquots of 50 µL of the peptide solutions serially diluted with the sterilized 0.1% BSA in 96-well flat-bottom polystyrene microplates. After incubation for 20 ± 2 h at 37 °C and 950 rpm, MICs were determined as described above. For each subsequent daily transfer, 2–4 μL of the inoculum taken from the first well containing a sub-inhibitory drug concentration were diluted with 2 mL of the fresh 2× MH broth supplemented with 1.8% NaCl. […] Bacteria that grew at the highest concentration of AMPs on the final day were passaged a further 3 times on drug-free agar plates before determining the final MIC value.

[5] = Cytotoxicity (MTT assay); assay type: cell-based, human; settings: human
Procedure: Hemolytic activity of the peptides was tested against the fresh suspension of human red blood cells (hRBC) using the hemoglobin release assay as described previously. Two experiments were performed with the hRBC from blood samples of independent donors. The quantitative data were represented as average means with standard deviations. The colorimetric 3-(4,5-dimethylthiazol-2-yl)-2,5-diphenyltetrazolium bromide (MTT) dye reduction assay was used to determine the cytotoxicity of the peptides against transformed human embryonic kidney cells (HEK293T). 10^4 cells per well in Dulbecco’s modified Eagle’s medium (DMEM/F12) supplemented with 10% fetal bovine serum (FBS; Invitrogen, Waltham, MA, USA) were placed into 96-well plates and then cultured in the CO2-incubator (5% CO2, 37 °C). After the media were removed, the peptides were dissolved in 100 µL of the same medium and added to cell cultures at different final concentrations. 20 h later, 20 μL of MTT (5 mg/mL; Sigma, St. Louis, MO, USA) was added to each well, and the plates were incubated for 4 h at 37 °C. Then, the media were discarded and a 100 µL dimethyl sulfoxide-isopropanol mixture at a ratio of 1:1 (v/v) was added to each well to dissolve the crystallized formazan. The absorbance at 570 nm was measured by a microplate reader AF2200 (Eppendorf, Hamburg, Germany). The optical density in the wells containing cells cultured without the peptides was assumed to represent 100% cell viability. Two independent experiments were performed for each peptide.

[6] = test system: VicBac[1–22]-resistant E. coli MDR 1057 strain; settings: Mueller-Hinton broth supplemented with 0.9% NaCl; strain selected 14 days with VicBac[1-22]; cross-resistance
Procedure: (§2) Bacterial test cultures were grown in the Mueller-Hinton broth (MH; Sigma, St. Louis, MO, USA) at 37 °C to mid-log phase and then diluted with the 2× MH medium supplemented with 1.8% NaCl or without salt so that to reach a final cell concentration of 10^6 CFU/mL. 50 µL of the obtained bacterial suspension were added to aliquots of 50 µL of the peptide solutions serially diluted with sterilized 0.1% bovine serum albumin (BSA) in 96-well flat-bottom polystyrene microplates (Eppendorf #0030730011, Hamburg, Germany). […] To verify MIC values, the respiratory activity of the bacteria was determined. Briefly, 20 µL of 0.1 mg/mL resazurin (a redox indicator; Sigma, St. Louis, MO, USA) was added to the wells after 24 h of incubation, and the plate was incubated for an additional two hours. The reduction of resazurin to resorufin was measured. […] The results were expressed as the median values determined based on at least three independent experiments performed in triplicate.
(§3) Resistance induction experiments were performed using the previously described method. Briefly, on day one, the overnight culture of wild-type bacteria was diluted with the 2× MH broth supplemented with 1.8% NaCl to reach a final cell concentration of 10^6 CFU/mL. 50 µL of the obtained bacterial suspension were added to aliquots of 50 µL of the peptide solutions serially diluted with the sterilized 0.1% BSA in 96-well flat-bottom polystyrene microplates. After incubation for 20 ± 2 h at 37 °C and 950 rpm, MICs were determined as described above. For each subsequent daily transfer, 2–4 μL of the inoculum taken from the first well containing a sub-inhibitory drug concentration were diluted with 2 mL of the fresh 2× MH broth supplemented with 1.8% NaCl. […] 14 repeated passages in the presence of antimicrobial agents were made for each bacterial strain during the experiment. Bacteria that grew at the highest concentration of AMPs on the final day were passaged a further 3 times on drug-free agar plates before determining the final MIC value.

[7] = test system: E. coli MDR CI 1057
Procedure: as §2, §3

## CC[C@H](C)[C@H](NC(=O)[C@H](CCCNC(=N)N)NC(=O)[C@@H](N)CCCNC(=N)N)C(=O)N[C@@H](CCCNC(=N)N)C(=O)N[C@@H](CCCNC(=N)N)C(=O)N1CCC[C@H]1C(=O)N[C@@H](CCCNC(=N)N)C(=O)N[C@@H](CC(C)C)C(=O)N1CCC[C@H]1C(=O)N[C@@H](CCCNC(=N)N)C(=O)N1CCC[C@H]1C(=O)N[C@@H](CCCNC(=N)N)C(=O)N[C@H](C(=O)N1CCC[C@H]1C(=O)N[C@@H](CCCNC(=N)N)C(=O)N1CCC[C@H]1C(=O)N[C@@H](CCCNC(=N)N)C(=O)N[C@H](C(=O)N1CCC[C@H]1C(=O)N1CCC[C@H]1C(=O)N[C@@H](CCCNC(=N)N)C(=O)N[C@H](C(=O)N1CCC[C@H]1C(=O)N[C@@H](CCCNC(=N)N)C(=O)N1CCC[C@H]1C(=O)N[C@H](C(=O)N[C@@H](CC(C)C)C(=O)N1CCC[C@H]1C(=O)N1CCC[C@H]1C(=O)N1CCC[C@H]1C(=O)N[C@@H](CCCNC(=N)N)C(=O)N[C@H](C(=O)N1CCC[C@H]1C(=O)N[C@@H](Cc1ccccc1)C(=O)N1CCC[C@H]1C(=O)N[C@@H](CCCNC(=N)N)C(=O)N[C@@H](Cc1ccccc1)C(=O)N1CCC[C@H]1C(=O)N[C@@H](CCCNC(=N)N)C(N)=O)C(C)C)C(C)C)[C@@H](C)CC)[C@@H](C)CC)C(C)C [VicBac[1-39]] (H-RRIRRPRLPRPRVPRPRIPPRIPRPVLPPPRVPFPRFPR-NH2; N-terminus assumed)
[1]; E. coli ML-35p, ONPG, near MIC 0.5 µM
  membrane damage effect at concentrations near the MIC value: negligible membrane damage effect
[1]; PBS, 37 °C, OD405, 2.5 mM ONPG, two independent experiments
  effect on E. coli ML-35p cytoplasmic membrane permeability for ONPG: quite moderate effect
[2]
  MIC, P. aeruginosa ATCC 27853: 4 µM (≈ 19.3 µg/mL)
[3]
  MIC, P. aeruginosa PAO1: 8 µM (≈ 38.5 µg/mL)
[4]
  increase in MIC value after serial passage selection: did not change
[5]
  IC50 at 20 h: ~100 µM
[6]
  Minimum inhibitory concentration E.coli MDR 1057 14 days with VicBac [1-22]: 2 µM
[7]; Mueller-Hinton broth supplemented with 0.9% NaCl (Figure 3A)
  MIC, E. coli MDR CI 1057: 1 µM (≈ 4.82 µg/mL)
[7]; Mueller-Hinton broth supplemented with 0.9% NaCl, after 14 passages without antimicrobial agents
  Minimum inhibitory concentration E.coli MDR 1057 14 days w/o AMP: 1 µM (≈ 4.82 µg/mL)
[7]; Mueller-Hinton broth supplemented with 0.9% NaCl, before passages
  Minimum inhibitory concentration E.coli MDR 1057 0 days: 1 µM (≈ 4.82 µg/mL)
